Results taken from EP4722213A1, “NITROGEN-CONTAINING FUNCTIONAL GROUP-SUBSTITUTED PYRIDAZINOPYRIDONE DERIVATIVE AND USE THEREOF” (Sichuan Huiyu Pharmaceutical Co., Ltd., priority 2023, dated 2024).
Structures can show the parent of a compound that is named as a salt.

Target: T1, SOS1 (Homo sapiens, UniProt Q07889)
T1 sequence (Q07889 1-1333): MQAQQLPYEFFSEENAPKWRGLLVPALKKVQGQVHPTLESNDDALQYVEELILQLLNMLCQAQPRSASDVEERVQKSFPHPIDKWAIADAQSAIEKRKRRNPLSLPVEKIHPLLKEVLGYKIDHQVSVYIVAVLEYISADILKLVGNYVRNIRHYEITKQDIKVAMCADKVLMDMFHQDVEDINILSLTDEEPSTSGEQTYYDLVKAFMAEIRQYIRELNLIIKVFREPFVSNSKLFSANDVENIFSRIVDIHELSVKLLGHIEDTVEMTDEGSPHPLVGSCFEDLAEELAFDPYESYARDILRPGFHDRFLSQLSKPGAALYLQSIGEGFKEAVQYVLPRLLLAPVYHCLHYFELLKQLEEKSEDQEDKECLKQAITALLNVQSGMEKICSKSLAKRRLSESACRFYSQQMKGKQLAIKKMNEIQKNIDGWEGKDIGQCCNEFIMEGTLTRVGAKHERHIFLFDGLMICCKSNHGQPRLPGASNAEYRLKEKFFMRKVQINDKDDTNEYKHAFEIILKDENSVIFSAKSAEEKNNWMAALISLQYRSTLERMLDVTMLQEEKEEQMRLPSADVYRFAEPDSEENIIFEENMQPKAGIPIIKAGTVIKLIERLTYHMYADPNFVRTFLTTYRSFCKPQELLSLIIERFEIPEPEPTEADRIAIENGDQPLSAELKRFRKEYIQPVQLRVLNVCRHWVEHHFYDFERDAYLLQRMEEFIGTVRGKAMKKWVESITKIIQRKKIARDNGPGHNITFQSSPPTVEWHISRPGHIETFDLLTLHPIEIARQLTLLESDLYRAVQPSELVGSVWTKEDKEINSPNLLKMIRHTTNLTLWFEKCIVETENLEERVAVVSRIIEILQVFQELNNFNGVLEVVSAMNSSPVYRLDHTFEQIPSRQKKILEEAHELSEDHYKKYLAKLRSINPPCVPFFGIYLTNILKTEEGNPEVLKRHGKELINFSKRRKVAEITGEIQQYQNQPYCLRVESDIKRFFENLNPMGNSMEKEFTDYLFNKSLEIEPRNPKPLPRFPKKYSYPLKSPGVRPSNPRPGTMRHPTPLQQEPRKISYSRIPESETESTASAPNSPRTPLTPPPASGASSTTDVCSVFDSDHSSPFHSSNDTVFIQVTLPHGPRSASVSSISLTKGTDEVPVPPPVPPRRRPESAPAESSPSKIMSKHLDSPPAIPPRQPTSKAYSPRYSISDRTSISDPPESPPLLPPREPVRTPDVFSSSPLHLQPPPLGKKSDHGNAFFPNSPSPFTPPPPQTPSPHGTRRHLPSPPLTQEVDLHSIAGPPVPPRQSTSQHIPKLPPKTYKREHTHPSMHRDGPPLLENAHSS
Test: biochemical

Row | Structure (SMILES) | IC50
1 | Cc1c(C#N)cccc1[C@@H](C)Nc1nnc(N2CCS(=O)(=O)CC2)c2cc(=O)n(C3(C)CC3)cc12 [Example 72, (R)-3-(1-((1-(1,1-dioxidothiomorpholino)-6-(1-methylcyclopropyl)-7-oxo-6,7-dihydropyrido[3,4-d]pyridazin-4-yl)amino)ethyl)-2-methylbenzonitrile] | 50.4 nM
2 | Cc1c([C@@H](C)Nc2nnc(N3CC4CC4C3)c3cc(=O)n(C4CC4)cc23)cccc1C(F)(F)F (stereo partly drawn) [Example 56, 1-(3-azabicyclo[3.1.0]hexan-3-yl)-6-cyclopropyl-4-(((R)-1-(2-methyl-3-(trifluoromethyl)phenyl)ethyl)amino)pyr ido[3,4-d]pyridazin-7(6H)-one] | 10.6 nM
3 | Cc1c([C@@H](C)Nc2nnc(N3CCN(C4CCCC4)CC3)c3cc(=O)n(C4(C)CC4)cc23)cccc1C(F)(F)F [Example 96, (R)-1-(4-cyclopentylpiperazin-1-yl)-4-((1-(2-methyl-3-(trifluoromethyl)phenyl)ethyl)amino)-6-(1-methylcyclopropyl) pyrido[3,4-d]pyridazin-7(6H)-one] | 7.4 nM
4 | C[C@@H](Nc1nnc(N2CC(F)(F)C2)c2cc(=O)n(C3CC3)cc12)c1cccc(C(F)F)c1F [Example 20, (R)-6-cyclopropyl-1-(3,3-difluoroazetidin-1-yl)-4-((1-(3-(difluoromethyl)-2-fluorophenyl)ethyl)amino)pyrido[3,4-d]pyridazin-7(6H)-one] | 23.8 nM
5 | C[C@@H](Nc1nnc(N2CCN(C)CC2)c2cc(=O)n(N3CC4CCCC4C3)cc12)c1cccc(C(F)F)c1F (stereo partly drawn) [Example 136, 4-(((R)-1-(3-(difluoromethyl)-2-fluorophenyl)ethyl)amino)-6-(hexahydrocyclopenta[c]pyrrol-2(1H)-yl)-1-(4-methylpiperazin-1-yl)pyrido[3,4-d]pyridazin-7(6H)-one formate] | 6.2 nM
6 | C[C@@H](Nc1nnc(N2CCC(F)(F)C2)c2cc(=O)n(C3CC3)cc12)c1cccc(C(F)F)c1F [Example 14, (R)-6-cyclopropyl-4-((1-(3-(difluoromethyl)-2-fluorophenyl)ethyl)amino)-1-(3,3-difluoropyrrolidin-1-yl)pyrido[3,4-d]pyridazin-7(6H)-one] | 17.6 nM
7 | Cc1c(C#N)cccc1[C@@H](C)Nc1nnc(N2CCN(C(C)C)CC2)c2cc(=O)n(C3CC3)cc12 [Example 215, (R)-3-(1-((6-cyclopropyl-1-(4-isopropylpiperazin-1-yl)-7-oxo-6,7-dihydropyrido[3,4-d]pyridazin-4-yl)amino)ethyl)-2-methylbenzonitrile] | 8.6 nM
8 | C[C@@H](Nc1nnc(N2CC[C@H](CO)C2)c2cc(=O)n(C3(C)CC3)cc12)c1cccc(C(F)(F)F)c1 [Example 179, 1-((S)-3-(hydroxymethyl)pyrrolidin-1-yl)-6-(1-methylcyclopropyl)-4-(((R)-1-(3-(trifluoromethyl)phenyl)ethyl)amino)pyr ido[3,4-d]pyridazin-7(6H)-one formate] | 6.4 nM
9 | CCn1cc2c(N[C@H](C)c3cccc(C(F)F)c3F)nnc(N3CCN(C)CC3)c2cc1=O [Example 116, (R)-4-((1-(3-(difluoromethyl)-2-fluorophenyl)ethyl)amino)-6-ethyl-1-(4-methylpiperazin-1-yl)pyrido[3,4-d]pyridazin-7(6H)-one] | 6.6 nM
10 | CCN(CC)c1nnc(N[C@H](C)c2cccc(C(F)(F)F)c2C)c2cn(C3CC3)c(=O)cc12 [Example 53, (R)-6-cyclopropyl-1-(diethylamino)-4-((1-(2-methyl-3-(trifluoromethyl)phenyl)ethyl)amino)pyr ido[3,4-d]pyridazin-7(6H)-one] | 24.7 nM
11 | C[C@@H](Nc1nnc(N2CC(CO)C2)c2cc(=O)n(C3(C)CC3)cc12)c1cccc(C(F)(F)F)c1 [Example 177, (R)-1-(3-(hydroxymethyl)azetidin-1-yl)-6-(1-methylcyclopropyl)-4-((1-(3-(trifluoromethyl)phenyl)ethyl)amino)pyr ido[3,4-d]pyridazin-7(6H)-one formate] | 6.2 nM
12 | Cc1c(C#N)cccc1[C@@H](C)Nc1nnc(N2CCN(C3CC3)CC2)c2cc(=O)n(C3CC3)cc12 [Example 99, (R)-3-(1-((6-cyclopropyl-1-(4-cyclopropylpiperazin-1-yl)-7-oxo-6,7-dihydropyrido[3,4-d]pyridazin-4-yl)amino)ethyl)-2-methylbenzonitrile] | 11.3 nM
13 | Cc1c([C@@H](C)Nc2nnc(N3CCC(F)(F)C3)c3cc(=O)n(C4CC4)cc23)cccc1C(F)(F)F [Example 55, (R)-6-cyclopropyl-1-(3,3-difluoropyrrolidin-1-yl)-4-((1-(2-methyl-3-(trifluoromethyl)phenyl)ethyl)amino)pyr ido[3,4-d]pyridazin-7(6H)-one] | 49.2 nM
14 | Cc1c(C#N)cccc1[C@@H](C)Nc1nnc(N2CCN(C)CC2)c2cc(=O)n(N3CC4CCCC4C3)cc12 (stereo partly drawn) [Example 150, 3-((1R)-1-((6-(hexahydrocyclopenta[c]pyrrol-2(1H)-yl)-1-(4-methylpiperazin-1-yl)-7-oxo-6,7-dihydropyrido[3,4-d]pyridazin-4-yl)amino)ethyl)-2-methylbenzonitrile] | 5.5 nM
15 | C[C@@H](Nc1nnc(N2CCN(C3CC3)CC2)c2cc(=O)n(C3(C)CC3)cc12)c1cccc(C(F)(F)F)c1F [Example 170, (R)-4-((1-(2-fluoro-3-(trifluoromethyl)phenyl)ethyl)amino)-1-(4-cyclopropylpiperazin-1-yl)-6-(1-methylcyclopropyl) pyrido[3,4-d]pyridazin-7(6H)-one] | 6.7 nM
16 | C[C@@H](Nc1nnc(N2CCN(C3CCCC3)CC2)c2cc(=O)n(C)cc12)c1cccc(C(F)F)c1F [Example 146, (R)-1-(4-cyclopentylpiperazin-1-yl)-4-((1-(3-(difluoromethyl)-2-fluorophenyl)ethyl)amino)-6-methylpyrido[3,4-d]pyridazin-7(6H)-one] | 12.5 nM
17 | Cc1c([C@@H](C)Nc2nnc(N3CCC(F)(F)C3)c3cc(=O)n(C4(C)CC4)cc23)cccc1C(F)(F)F [Example 67, (R)-1-(3,3-difluoropyrrolidin-1-yl)-4-((1-(2-methyl-3-(trifluoromethyl)phenyl)ethyl)amino)-6-(1-methylcyclopropyl) pyrido[3,4-d]pyridazin-7(6H)-one] | 29 nM
18 | C[C@@H](Nc1nnc(-n2cncn2)c2cc(=O)n(C3CC3)cc12)c1cccc(C(F)F)c1F [Example 1, (R)-6-cyclopropyl-4-((1-(3-(difluoromethyl)-2-fluorophenyl)ethyl)amino)-1-(1H-1,2,4-triazol-1-yl) pyrido[3,4-d]pyridazin-7(6H)-one] | 13.5 nM
19 | C[C@@H](Nc1nnc(-n2cccn2)c2cc(=O)n(C3CC3)cc12)c1cccc(C(F)F)c1F [Example 30, (R)-6-cyclopropyl-4-((1-(3-(difluoromethyl)-2-fluorophenyl)ethyl)amino)-1-(1H-pyrazol-1-yl) pyrido[3,4-d]pyridazin-7(6H)-one] | 33.5 nM
20 | CCN(C)c1nnc(N[C@H](C)c2cccc(C(F)F)c2F)c2cn(C3(C)CC3)c(=O)cc12 [Example 122, (R)-4-((1-(3-(difluoromethyl)-2-fluorophenyl)ethyl)amino)-1-(ethyl(methyl)amino)-6-(1-methylcyclopropyl) pyrido[3,4-d]pyridazin-7(6H)-one] | 10.6 nM
21 | Cc1c([C@@H](C)Nc2nnc(N3CCN(C4CCC4)CC3)c3cc(=O)n(C4(C)CC4)cc23)cccc1C(F)(F)F [Example 94, (R)-1-(4-cyclobutylpiperazin-1-yl)-4-((1-(2-methyl-3-(trifluoromethyl)phenyl)ethyl)amino)-6-(1-methylcyclopropyl) pyrido[3,4-d]pyridazin-7(6H)-one] | 7.3 nM
22 | C[C@@H](Nc1nnc(N2C3CCC2COC3)c2cc(=O)n(C3(C)CC3)cc12)c1cccc(C(F)F)c1F [Example 202, 1-(3-oxa-8-azabicyclo[3.2.1]octan-8-yl)-4-(((R)-1-(3-(difluoromethyl)-2-fluorophenyl)ethyl)amino)-6-(1-methylcyclopropyl) pyrido[3,4-d]pyridazin-7(6H)-one] | 12.4 nM
23 | Cc1c([C@@H](C)Nc2nnc(N3CCN(C)CC3)c3cc(=O)n(C4CC4)cc23)cccc1C(F)(F)F [Example 86, (R)-6-cyclopropyl-4-((1-(2-methyl-3-(trifluoromethyl)phenyl)ethyl)amino)-1-(4-methylpiperazin-1-yl)pyrido[3,4-d]pyridazin-7(6H)-one] | 3.6 nM
